System: Bone marrow MSCs
Assay: HGF-1 production by bone marrow MSCs cultured with rapamycin (ELISA)
Type: cell-based
Conditions: bone marrow MSCs (ATCC), 96 well plates, indicated concentrations of rapamycin and time points, ELISA (R&D Systems), FIG. 1
Procedure: Bone marrow MSCs were purchased from American Type Culture Collection (hereinafter, “ATCC”) and grown in DMEM media with 10% fetal calf serum. Cells were allowed to expand to 100% confluence. The media was subsequently washed with phosphate buffered saline (PBS). Cells were plated on 96 well plates and cultured in the presence of the indicated concentrations of rapamycin for the indicated time points. Hepatocyte Growth Factor (HGF-1) expression was assessed using ELISA (R&D Systems).

SMILES: CO[C@H]1C[C@@H]2CC[C@@H](C)[C@@](O)(O2)C(=O)C(=O)N2CCCC[C@H]2C(=O)O[C@H]([C@H](C)C[C@@H]2CC[C@@H](O)[C@H](OC)C2)CC(=O)[C@H](C)/C=C(\C)[C@@H](O)[C@@H](OC)C(=O)[C@H](C)C[C@H](C)/C=C/C=C/C=C/1C [rapamycin, Rapamycin]
- Hepatocyte Growth Factor (HGF-1) expression / production: significant increase in production of HGF-1

From US20210386789A1, “Enhancement of Mesenchymal Stem Cell Anti-inflammatory and Regenerative Activity Using mTOR Inhibitors” (BRAIN CANCER RESEARCH INSTITUTE, priority 2020, published 2021)
